Drawing on US20210053957A1, “HERBICIDAL COMPOUNDS” (SYNGENTA PARTICIPATIONS AG, priority 2018, published 2021), this text covers pest or weed control for three compounds.

What all share (experiment): Post-emergence efficacy, glasshouse spray test
Common to all, as to format: in vivo

In assay [1] the test system is Amaranthus palmeri (AMAPA). The settings on record: Amaranthus palmeri, post-emergence, 312 h; Application Rate 500 g/Ha; evaluated after 13 days; read-out: Control of weed species after post-emergence application, AMAPA (100=total damage to plant; 0=no damage to plant). In outline: (§1)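 Sow in standard soil; grow 14 d at 24/16° C, 14 h light, 65% humidity; spray aqueous dilution of IF50 formulation; return to glasshouse, water twice daily; score injury 0–100 at day 13.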

The subject of assay [2] is Chenopodium album (CHEAL). The settings on record: Chenopodium album, post-emergence, 312 h; Application Rate 500 g/Ha; evaluated after 13 days; read-out: Control of weed species after post-emergence application, CHEAL (100=total damage to plant; 0=no damage to plant). A digest of the protocol: as §1
Assay [3] concerns Digitaria sanguinalis (DIGSA). The settings on record: Digitaria sanguinalis, post-emergence, 312 h; Application Rate 500 g/Ha; evaluated after 13 days; read-out: Control of weed species after post-emergence application, DIGSA (100=total damage to plant; 0=no damage to plant). In outline:
as §1

For assay [4], the system named is Echinochloa crus-galli (ECHCG). As to conditions: Echinochloa crus-galli, post-emergence, 312 h; Application Rate 500 g/Ha; evaluated after 13 days; read-out: Control of weed species after post-emergence application, ECHCG (100=total damage to plant; 0=no damage to plant). In outline: as §1
A further assay has as its system Eleusine indica (ELEIN). The settings on record: Eleusine indica, post-emergence, 312 h; Application Rate 500 g/Ha; evaluated after 13 days; read-out: Control of weed species after post-emergence application, ELEIN (100=total damage to plant; 0=no damage to plant). In outline: as §1
Assay [5] has as its system Euphorbia heterophylla (EPHHL). The settings on record: Euphorbia heterophylla, post-emergence, 312 h; Application Rate 500 g/Ha; evaluated after 13 days; read-out: Control of weed species after post-emergence application, EPHHL (100=total damage to plant; 0=no damage to plant). In outline: as §1
In assay [6] the test system is Ipomoea hederacea (IPOHE). As to conditions: Ipomoea hederacea, post-emergence, 312 h; Application Rate 500 g/Ha; evaluated after 13 days; read-out: Control of weed species after post-emergence application, IPOHE (100=total damage to plant; 0=no damage to plant). In outline:
as §1

A further assay deals with Lolium perenne (LOLPE). The settings on record: Lolium perenne, post-emergence, 312 h; Application Rate 500 g/Ha; evaluated after 13 days; read-out: Control of weed species after post-emergence application, LOLPE (100=total damage to plant; 0=no damage to plant). In outline:
as §1

For another assay, the system named is Setaia fabei (SETFA). As to conditions: Setaria faberi, post-emergence, 312 h; Application Rate 500 g/Ha; evaluated after 13 days; read-out: Control of weed species after post-emergence application, SETFA (100=total damage to plant; 0=no damage to plant). In outline:
as §1

With `Nc1nsc(-c2cc[n+](CCS(=O)(=O)[O-])nc2)n1` [Compound A141], the pest or weed control at 500 g/ha worked out at 100% in assay [1]; 100% in [2]; 10% in assay [3]; 30% in [4]; 10% with Eleusine indica (ELEIN); 100% in assay [5]. Further, the pest or weed control at 500 g/ha stood at 100% in assay [6], 30% in the assay with Lolium perenne (LOLPE) and 50% with Setaia fabei (SETFA).

For `O=C(O)CC[n+]1ccc(-c2ncsn2)cn1` [Compound A142, 3-[4-(1,2,4-thiadiazol-3-yl)pyridazin-1-ium-1-yl]propanoic acid 2,2,2-trifluoroacetate], the pest or weed control at 500 g/ha stood at 100% in [1]; 90% in assay [2]; 100% in [3]; 100% in [4]; 100% with Eleusine indica (ELEIN); 100% in [5]. Moreover, the pest or weed control at 500 g/ha in assay [6] was 30%; in the assay with Lolium perenne (LOLPE) it was 90%; with Setaia fabei (SETFA), 90%.

For `O=S(=O)([O-])CC[n+]1ccc(-c2ncsn2)cn1` [Compound A143], the pest or weed control at 500 g/ha turned out to be 100% in assay [1]; 90% in assay [2]; 100% in [3]; 100% in assay [4]; 100% in the assay with Eleusine indica (ELEIN); 100% in assay [5]. Besides, the pest or weed control at 500 g/ha in assay [6] was 60%; with Lolium perenne (LOLPE), 100%; with Setaia fabei (SETFA) it was 90%.
